# In patent publication US7943630B2, “3,9-diaza-spiro[5.5]undecane derivatives and their use as monoamine neurotransmitter re-uptake inhibitors” (Neurosearch A/S, priority 2005, dated 2011):
row,melting point,SMILES
1,71.2 to 72.9 °C,Clc1ccc(N2CCC3(CCNCC3)CC2)nc1
2,198.5 to 199.3 °C,Brc1cccc(N2CCC3(CCNCC3)CC2)n1.O=C(O)/C=C/C(=O)O
3,80.4 to 81.9 °C,Clc1cccc(N2CCC3(CCNCC3)CC2)c1Cl
4,201.4 to 202.2 °C,Fc1ccc(N2CCC3(CCNCC3)CC2)cc1Cl.O=C(O)/C=C/C(=O)O
5,103 to 105 °C,Brc1ccc(N2CCC3(CCNCC3)CC2)nc1
6,175.8 to 177.6 °C,"COc1ccc2cc(N3CCC4(CCNCC4)CC3)ccc2c1 [3rd compound of method C, 3-(6-Methoxy-naphthalen-2-yl)-3,9-diaza-spiro[5.5]undecane]"
7,209 to 212 °C,"Clc1ccc(N2CCC3(CCNCC3)CC2)cc1Cl [4th compound of method C, 3-(3,4-Dichloro-phenyl)-3,9-diaza-spiro[5.5]undecane]"
8,95.5 to 97.4 °C,"Clc1ccc(N2CCC3(CCNCC3)CC2)cc1 [7th compound of method C, 3-(4-Chloro-phenyl)-3,9-diaza-spiro[5.5]undecane]"
9,158 to 162 °C,"c1ccc2cc(N3CCC4(CCNCC4)CC3)ccc2c1 [10th compound of method C, 3-Naphthalen-2-yl-3,9-diaza-spiro[5.5]undecane]"
